Molecules are shown by their SMILES. Where a SMILES comes first, the peptide text is derived from it.

Here are results for 70 compounds from the pKa sets of Baltruschat and Czodrowski (2020).

As to `CCSC(=O)c1cccc(C)c1`, the pKa (as a rule, the negative logarithm of the acid dissociation constant) (basic group) was -4.77. On to `O=C([O-])[C@@H](NCCN[C@@H](C(=O)[O-])c1ccccc1[O-])c1ccccc1[O-]`, for which the pKa (basic group) amounted to 11.9. As to `COC(=O)c1ccc(O)c([N+](=O)[O-])c1`, the pKa (acidic group) was found to be 5.4. Consider `Cc1ccc(N(CC2CO2)CC2CO2)cc1` (configuration not stated), for which the pKa (basic group) is -0.48. Regarding `CC(O)[C@@H]1C[NH2+][C@H](C(=O)[O-])[C@H]1CC(=O)O` (some centres not stated), the pKa (acidic group) was 4.35. The compound `Nc1ccc2[nH+]cccc2c1` returned a pKa (basic group) of 1.63. On to `CC(C(N)=O)S(=O)(=O)NC(N)=O` (configuration not stated), for which the pKa (acidic group) is 5.21. On to `CCC/C=C/C(=O)O`, for which the pKa (acidic group) was determined as 4.71. Still for that read-out and setting: then `O=C(O)/C(I)=C/c1ccccc1`, with 3.3. `Cc1cnc2c(ccc3c(C)ccnc32)c1` registered a pKa (basic group) of 5.57. Take `CCCCCCCCCCCC[NH2+]CCCN`: the pKa (basic group) was 8.37. Still for that read-out and setting: as for `NCc1ccc(C=O)o1`, the figure is 8.1; as for `CCN(CC)CC(=O)NCc1ccccc1`, 8.07. Consider `O=C([O-])/C=C/C(=O)CC(=O)CC(=O)[O-]`, for which the pKa (acidic group) came out at 8.4. `CCN1CCC[C@@H]1CNC(=O)c1c([O-])cccc1OC`: the pKa (basic group) was found to be 9.54. With `N#Cc1ccccc1N`, the pKa (basic group) was 0.95.

Turning to `Nc1cc(N)c2cccnc2c1O`, the pKa is, setting by setting: (acidic group) 10.8; (basic group) 6.96. Take `C#CCNc1ccccc1`: the pKa (basic group) came to 3.06.

For the setting “basic group”, `O=C(O)c1ccc(O)c2ncccc12` registered a pKa of 4.

As for `O=C(O)[C@H]1O[C@@H]1C(=O)O`, the pKa (acidic group) was determined as 1.92. With `Nc1ccc(S(=O)(=O)Nc2ccc(O)cn2)cc1`, the pKa (acidic group) was 7.5. Take `O=[N+]([O-])c1ccc(-n2cnnn2)cc1`: under “basic group”, the pKa was -3.92. Take `C[n+]1cccc2c(S)cccc21`: the pKa (acidic group) was 3.22. The same measure, in the same setting: as for `CCOC(=O)/C(=N/O)c1ccccc1`, the figure is 8.95. Under “basic group”, `CC(CC[NH+](C)C)NN` (configuration not stated) showed a pKa of 5.9. On the same count and under the same terms, as for `CN1C2CCC(C2)N1C`, the figure is 6.89. `C/C(=C\c1cc(C(C)(C)C)c(O)c(C(C)(C)C)c1)C(=O)[O-]` returned a pKa (acidic group) of 11.5. `NC(=O)NS(=O)(=O)c1ccc(N)cc1` showed a pKa (acidic group) of 5.41.

`Cn1c(=O)[nH]c2ncn(C)c2c1=O`: the pKa was 8.65 (acidic group) and 0.5 (basic group). Compound `OC[C@@H]1O[C@H](CN2CCOCC2)[C@@H](O)[C@H](O)[C@@H]1O` came in with a pKa (basic group) of 6.1. In turn, `Cc1ccc(S(=O)(=O)N[C@@H](CCC(N)=O)C(=O)[O-])cc1` had a pKa (acidic group) of 11.8. Under “basic group”, `c1ccc2c(c1)NCC[NH2+]2` returned a pKa of 2.11. For the compound `c1ccc(Cc2cc(-c3ccccc3)nnc2NCC[NH+]2CCOCC2)cc1`, the pKa (basic group) was 3.6.

Where the note is “acidic group”, `CCCCNc1cc[nH+]c(S)n1` yielded a pKa of 3.2. Where the note is “acidic group”, `C/N=C(/SC)c1ccccc1` yielded a pKa of 6.42. As for `CCCSCC(=O)O`, under “acidic group”, the pKa is 3.77. The same measure, in the same setting: as for `O=[N+]([O-])c1cccc(NC=S)c1`, the figure is 10.3; as for `O=C(O)/C=C(\I)c1ccccc1`, 3.4. For the compound `CC1=CCCCN1C`, the pKa (basic group) came out at 11.4. On to `O=C(O)C(c1ccc(-c2ccccc2)cc1)C(O)c1ccccc1` (configuration not stated), for which, for the setting “acidic group”, the pKa turned out to be 4.25.

Turning to `CCCCCCCCCCCCCCN(CCO)CC(C)O` (configuration not stated), the pKa (basic group) came to 6.3.

`NCCCC[NH3+]`: for the setting “basic group”, the pKa came out at 9.36. Consider `NC(=S)Nc1ccc(Cl)cc1`, for which the pKa (acidic group) is 12.3. Turning to `CCN(C)CCOCC[NH+](CC)CC`, the pKa (basic group) came out at 8.46. Consider `N#C/C(=C\C(=O)O)c1ccccc1`, for which the pKa (acidic group) was found to be 3.07. `CCCCCCN(CC(C)O)CC(O)CC` (configuration not stated) registered a pKa (basic group) of 8.9. With `Oc1ccc2ccccc2c1`, for the setting “acidic group”, the pKa is 9.6.

`CCN1[C@@H](C)[C@@H]1C` (some centres not stated): the pKa (basic group) stood at 9.41.

`Cn1cnc(C(=O)[O-])c1C(=O)[O-]`: the pKa (basic group) was determined as 8. On the same count and under the same terms, as for `CNCl`, the figure is 1.71; as for `Oc1cccc(C2NCCS2)c1` (configuration not stated), 5.2.

Where the note is “basic group”, `NCC(=O)NCC(=O)NCC(=O)N1CCC[C@H]1C(=O)[O-]` (H-GGGP-OH) gave a pKa of 8.04.

For `COc1ccc2c3c1O[C@H]1[C@@H](O)C=C[C@H]4[C@@H](C2)N(C)CC[C@@]341`, the pKa (basic group) is 8.05. Same read-out and setting: then `NCCCCCCBr`, with 10.6; and `CCNC(=O)c1ccccn1`, with 2.4; and `O=C1Nc2cncnc2N/C1=C1/Nc2ncncc2NC1=O`, with 1. As for `O=S(=O)(Nc1cccc(F)c1)c1ccccc1`, where the note is “acidic group”, the pKa was found to be 7.54. `Cc1cccc(C(=O)N(C)O)c1` displayed a pKa (acidic group) of 8.52.

Regarding `C[C@H]1[C@@H]([NH3+])[C@@H](C)[C@@H](N)[C@@H](C)[C@H]1[NH3+]`, where the note is “basic group”, the pKa amounted to 5.15.

For the compound `CSc1ccnc2ccccc12`, the pKa (basic group) is 5.81.

`NCc1ccc([N+](=O)[O-])cc1` came in with a pKa (basic group) of 8.5. Turning to `S=c1[nH]c(=S)c2[nH]cnc2[nH]1`, under “acidic group”, the pKa was determined as 5.02. In the case of `NC(=S)c1ccccc1`, the pKa (basic group) was -3.2.

Compound `COc1cc(C[NH+](C)C)c(O)c(C[NH+](C)C)c1` registered a pKa (acidic group) of 6.33.

`Cn1nnnc1CC(=O)O` showed a pKa (acidic group) of 2.83. Still for that read-out and setting: as for `CC#CC#CC(=O)O`, the figure is 1.94; as for `Oc1ccc2cccc(I)c2c1`, 8.98; as for `Nc1ccc(S(=O)(=O)Nc2nccc(N)n2)cc1`, 9.44.

Turning to `CCC/C=C(\C)C(=O)O`, under “acidic group”, the pKa was determined as 5.13. The same measure, in the same setting: as for `Cc1ccc(O)cc1Cc1cc([N+](=O)[O-])ccc1[O-]`, the figure is 10.3.
